The source of these data is patent US20240316047A1, “INHIBITORS OF RNA HELICASE DHX9 AND USES THEREOF” (ACCENT THERAPEUTICS, INC., priority 2022, published 2024).

pIC50: −log10 of the molar value.

The target of the experiment is Human recombinant DHX9 protein (Homo sapiens (Human), UniProt Q08211). Briefly: DHX9 ATPase assay (ADP-Glo). It counts as biochemical. The following applies: for pIC50: read-out: DHX9 Biochemical Inflection Point. (ADP-Glo first removes unused ATP, then detects ADP through luciferase.)
Human recombinant DHX9 protein, sequence (Q08211 whole entry): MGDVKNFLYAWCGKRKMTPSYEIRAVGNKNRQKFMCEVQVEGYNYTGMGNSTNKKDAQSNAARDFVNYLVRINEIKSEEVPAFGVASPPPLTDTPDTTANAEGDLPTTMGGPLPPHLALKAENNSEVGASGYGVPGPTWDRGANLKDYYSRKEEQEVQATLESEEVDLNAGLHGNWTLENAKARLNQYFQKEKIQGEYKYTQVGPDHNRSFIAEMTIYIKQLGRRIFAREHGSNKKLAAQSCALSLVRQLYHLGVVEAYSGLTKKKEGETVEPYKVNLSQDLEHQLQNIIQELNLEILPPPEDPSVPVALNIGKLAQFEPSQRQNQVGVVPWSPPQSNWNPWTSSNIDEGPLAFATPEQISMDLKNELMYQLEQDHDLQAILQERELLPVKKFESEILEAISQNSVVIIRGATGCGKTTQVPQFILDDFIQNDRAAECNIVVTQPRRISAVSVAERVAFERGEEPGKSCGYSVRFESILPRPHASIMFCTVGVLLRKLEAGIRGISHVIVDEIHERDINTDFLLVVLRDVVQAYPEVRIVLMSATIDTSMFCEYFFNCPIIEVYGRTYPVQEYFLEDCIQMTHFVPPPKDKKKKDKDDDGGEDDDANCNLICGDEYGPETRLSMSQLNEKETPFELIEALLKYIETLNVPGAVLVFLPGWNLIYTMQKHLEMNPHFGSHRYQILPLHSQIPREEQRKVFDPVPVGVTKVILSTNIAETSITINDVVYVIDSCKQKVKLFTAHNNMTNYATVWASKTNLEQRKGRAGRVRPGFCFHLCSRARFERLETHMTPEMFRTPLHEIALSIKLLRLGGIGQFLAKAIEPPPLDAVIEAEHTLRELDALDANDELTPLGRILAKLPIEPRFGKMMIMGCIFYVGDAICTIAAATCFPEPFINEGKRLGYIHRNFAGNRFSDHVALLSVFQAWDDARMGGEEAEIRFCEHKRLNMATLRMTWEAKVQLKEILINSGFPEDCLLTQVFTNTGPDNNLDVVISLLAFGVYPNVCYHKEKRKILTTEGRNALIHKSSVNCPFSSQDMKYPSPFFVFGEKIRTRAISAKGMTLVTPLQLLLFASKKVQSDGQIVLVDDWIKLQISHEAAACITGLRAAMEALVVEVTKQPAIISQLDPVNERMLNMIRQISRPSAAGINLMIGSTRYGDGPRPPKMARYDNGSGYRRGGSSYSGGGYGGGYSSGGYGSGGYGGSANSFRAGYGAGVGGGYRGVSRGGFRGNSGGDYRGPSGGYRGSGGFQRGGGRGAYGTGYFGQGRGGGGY

For `Cc1cc(N2CCC(F)(F)CC2)cnc1-c1cc(C(=O)Nc2cc(Cl)cc(NS(C)(=O)=O)c2)cn1C` [Example 600], the “DHX9 Biochemical Max Inhibition” value came to 79.3 and the pIC50 was 7.38.

Turning to `COC(=O)N1CCN(c2cnc(-c3cc(C(=O)Nc4cc(Cl)cc(NS(C)(=O)=O)c4)sc3C)c(C)c2)CC1` [Example 601], the “DHX9 Biochemical Max Inhibition” value was 72.2 and the pIC50 is 7.67.

Consider `Cc1cc(N2CCC(F)(F)CC2)cnc1-c1cc(C(=O)Nc2cc(Cl)cc(NS(C)(=O)=O)c2)sc1C` [Example 602], for which the “DHX9 Biochemical Max Inhibition” value came out at 92.4 and the pIC50 was 7.24.

As to `CN1C(=O)N(c2ccc(-c3cc(C(=O)Nc4cc(Cl)cc(NS(C)(=O)=O)c4)cn3C)nc2)C(=O)C1(C)C` [Example 603], the “DHX9 Biochemical Max Inhibition” value stood at 83.4 and the pIC50 was 7.96.

In the case of `Cn1cc(C(=O)Nc2cc(Cl)cc(NS(C)(=O)=O)c2)cc1-c1ncc(F)cc1-c1cncc(F)c1` [Example 604, N-(3-chloro-5-methanesulfonamidophenyl)-5-{5,5′-difluoro-[3,3′-bipyridin]-2-yl}-1-methylpyrrole-3-carboxamide], the “DHX9 Biochemical Max Inhibition” value turned out to be 69.1 and the pIC50 was 7.43.

`Cc1sc(C(=O)Nc2cc(Cl)cc(NS(C)(=O)=O)c2)cc1-c1ncc(F)cc1-c1ccn(C)c(=O)c1` [Example 605]: the “DHX9 Biochemical Max Inhibition” value was determined as 67.5 and the pIC50 is 7.61.

Regarding `Cc1sc(C(=O)Nc2cc(Cl)cc(NS(C)(=O)=O)c2)cc1-c1ncc(F)cc1-c1ccc(=O)n(C)c1` [Example 606], the “DHX9 Biochemical Max Inhibition” value is 71.8 and the pIC50 is 7.59.

Regarding `Cc1sc(C(=O)Nc2cc(Cl)cc(NS(C)(=O)=O)c2)cc1-c1ncc(F)cc1-c1cncc(F)c1` [Example 607], the “DHX9 Biochemical Max Inhibition” value came to 75.9 and the pIC50 is 7.88.

With `Cc1ncccc1-c1cc(F)cnc1-c1cc(C(=O)Nc2cc(Cl)cc(NS(C)(=O)=O)c2)sc1C` [Example 608], the “DHX9 Biochemical Max Inhibition” value came to 75.4 and the pIC50 was 8.14.

With `Cc1sc(C(=O)Nc2cc(Cl)cc(NS(C)(=O)=O)c2)cc1-c1ncc(OC2CN(C)C2)cn1` [Example 609, N-(3-chloro-5-methanesulfonamidophenyl)-5-methyl-4-{5-[(1-methylazetidin-3-yl)oxy]pyrimidin-2-yl}thiophene-2-carboxamide], the “DHX9 Biochemical Max Inhibition” value was determined as 72.7 and the pIC50 was 8.52.

For the compound `CN1CC(Oc2cnc(-c3cc(C(=O)Nc4cc(Cl)cc(NS(C)(=O)=O)c4)cn3C)c(F)c2)C1` [Example 611], the “DHX9 Biochemical Max Inhibition” value stood at 65.3 and the pIC50 was 8.42.

As for `CN1CC(Oc2cnc(-c3cc(C(=O)Nc4cc(Cl)cc(NS(C)(=O)=O)c4)cn3CC(F)(F)F)nc2)C1` [Example 613], the “DHX9 Biochemical Max Inhibition” value came out at 70.3 and the pIC50 is 8.38.

With `Cn1cc(C(=O)Nc2cc(Cl)cc(NS(C)(=O)=O)c2)cc1-c1ncc(OC2CN(CC(F)F)C2)cc1F` [Example 614], the “DHX9 Biochemical Max Inhibition” value is listed as 70.4 and the pIC50 is 7.84.

`Cn1cc(C(=O)Nc2cc(Cl)cc(NS(C)(=O)=O)c2)cc1-c1ncc(OC2CN(CC(F)(F)F)C2)cc1F` [Example 615]: the “DHX9 Biochemical Max Inhibition” value is 73.9 and the pIC50 is 7.28.

On to `CNc1cnc(-c2cc(C(=O)Nc3cc(Cl)cc(NS(C)(=O)=O)c3)sc2C)nc1` [Example 616, N-(3-chloro-5-methanesulfonamidophenyl)-5-methyl-4-[5-(methylamino)pyrimidin-2-yl]thiophene-2-carboxamide], for which the “DHX9 Biochemical Max Inhibition” value is 84.2 and the pIC50 was 7.94.

Consider `Cc1sc(C(=O)Nc2cc(Cl)cc(NS(C)(=O)=O)c2)cc1-c1ncc(C2CCN(CC(F)(F)F)CC2)cc1F` [Example 618], for which the “DHX9 Biochemical Max Inhibition” value was determined as 66.6 and the pIC50 is 7.23.

Turning to `Cn1cc(C(=O)Nc2cc(Cl)cc(NS(C)(=O)=O)c2)cc1-c1ccc(C2CCN(CC(F)(F)F)CC2)cn1` [Example 619], the “DHX9 Biochemical Max Inhibition” value amounted to 81.3 and the pIC50 was 6.75.

`Cc1sc(C(=O)Nc2cc(Cl)cc(NS(C)(=O)=O)c2)cc1-c1ncccc1OCc1cncc(F)c1` [Example 621]: the “DHX9 Biochemical Max Inhibition” value is 74.4 and the pIC50 is 8.17.

Regarding `CCS(=O)(=O)Nc1cc(Cl)cc(NC(=O)c2cc(-c3ncc(F)cc3OCc3nccs3)c(C)s2)c1` [Example 622], the “DHX9 Biochemical Max Inhibition” value is reported as 62.9 and the pIC50 is 7.64.

Consider `CCS(=O)(=O)Nc1cc(Cl)cc(NC(=O)c2cc(-c3ncc(F)cc3OCc3cncnc3)c(C)s2)c1` [Example 623], for which the “DHX9 Biochemical Max Inhibition” value amounted to 94.5 and the pIC50 was 8.41.

As for `Cc1ccnc(OCc2cncc(F)c2)c1-c1cc(C(=O)Nc2cc(Cl)cc(NS(C)(=O)=O)c2)cn1C` [Example 624], the “DHX9 Biochemical Max Inhibition” value was found to be 97.2 and the pIC50 is 8.05.

As for `Cn1cc(C(=O)Nc2cc(Cl)cc(NS(C)(=O)=O)c2)cc1-c1ncc(F)cc1OCc1nnnn1C` [Example 625], the “DHX9 Biochemical Max Inhibition” value turned out to be 87.8 and the pIC50 is 7.90.

As to `Cc1sc(C(=O)Nc2cc(Cl)cc(NS(=O)(=O)CCO)c2)cc1-c1ncccc1OCc1cncc(F)c1` [Example 626], the “DHX9 Biochemical Max Inhibition” value worked out at 75.7 and the pIC50 is 8.38.

On to `Cn1cc(C(=O)Nc2cc(Cl)cc(NS(C)(=O)=O)c2)cc1-c1ncncc1OCc1cc(F)cc(F)c1` [Example 627], for which the “DHX9 Biochemical Max Inhibition” value was 75.8 and the pIC50 was 7.53.

In the case of `Cc1sc(C(=O)Nc2cc(Cl)cc(NS(C)(=O)=O)c2)cc1-c1ncc(OC2CN(C)C2)cc1F` [Example 635], the “DHX9 Biochemical Max Inhibition” value is given as 68.5 and the pIC50 is 8.70.

Regarding `Cc1sc(C(=O)Nc2cc(Cl)cc(NS(C)(=O)=O)c2)cc1-c1ncc(OC2CNC2)cn1` [Example 636, 4-[5-(azetidin-3-yloxy)pyrimidin-2-yl]-N-(3-chloro-5-methanesulfonamidophenyl)-5-methylthiophene-2-carboxamide], the “DHX9 Biochemical Max Inhibition” value is recorded as 70.3 and the pIC50 is 7.91.

For `Cc1sc(C(=O)Nc2cc(Cl)cc(NS(C)(=O)=O)c2)cc1-c1ncc(OC2CNC2)cc1F` [Example 637], the “DHX9 Biochemical Max Inhibition” value was found to be 71.4 and the pIC50 is 8.47.

On to `CN1CC(Oc2cnc(-c3cc(C(=O)Nc4cc(Cl)cc(NS(C)(=O)=O)c4)cn3CC(F)(F)F)c(F)c2)C1` [Example 638], for which the “DHX9 Biochemical Max Inhibition” value was 70.5 and the pIC50 was 7.86.

As to `CN1CC[C@H](Oc2cnc(-c3cc(C(=O)Nc4cc(Cl)cc(NS(C)(=O)=O)c4)cn3C)c(F)c2)C1` [Example 639, N-(3-chloro-5-methanesulfonamidophenyl)-5-(3-fluoro-5-{[(3S)-1-methylpyrrolidin-3-yl]oxy}pyridin-2-yl)-1-methylpyrrole-3-carboxamide], the “DHX9 Biochemical Max Inhibition” value is recorded as 59.7 and the pIC50 was 8.11.

Regarding `CN1CC[C@@H](Oc2cnc(-c3cc(C(=O)Nc4cc(Cl)cc(NS(C)(=O)=O)c4)cn3C)c(F)c2)C1` [Example 640], the “DHX9 Biochemical Max Inhibition” value came to 59 and the pIC50 was 8.15.
